{"source": "patent US10443044B2", "about": "“Generating cardiac progenitor cells from pluripotent stem cells using isoxazole or isoxazole like compounds” (IPS Heart, priority 2014, dated 2019)", "key": {"[1]": {"tested_on": "DNA methyltransferase (DNMT)", "assay": "DNA methyltransferase (DNMT) activity assay in small molecule treated SiPS", "type": "cell-based, mouse", "procedure": "(§1) In order to direct SiPS towards cardiac lineage cells, they were treated with a small molecule (Isoxazole, 20 uM, Sigma-Aldrich or ISX-9, StemCell Technologies, Inc Vancouver, BC) for five days and analyzed for DNA methyltransferase (Dnmt) activity, cell proliferation, and cardiac gene expression.\nNuclear extracts were isolated using the NE-PER Nuclear and Cytoplasmic Extraction Kit (Thermo Scientific, IL USA). Total DNMT activity was determined using an EpiQuik DNA methyltransferase activity assay kit (Epigentek, Brooklyn, N.Y.) per manufacturer's protocol. Enzyme activity for samples and controls was measured on a microplate reader (Hidex Chameleon, Finland) at 450 nm and DNMT activity (OD/h/ml) was calculated according to the formula: (Sample OD−blank OD)/(sample volume)×1000."}, "SiPS": {"tested_on": "SiPS", "assay": "Cell proliferation assay (MTS)", "type": "cell-based, mouse", "conditions": "treated vs non treated SiPS, p<0.01; listed as small molecule", "procedure": "as §1\nThe cell proliferation assay was performed with the use of the MTS [3-(4,5-dimethylthiazol-2-yl)-5-(3-carboxymethoxyphenyl)-2-(4-sulfophenyl)-2H-tetrazolium] assay according to the manufacturer's recommendations (Promega). The plates were read at 490 nm using an automated ELISA plate-reader for the quantity of formazan product which was directly proportional to the number of living cells in culture."}, "IPS cells [2]": {"tested_on": "IPS cells", "assay": "Oxidant induced apoptosis, TUNEL assay", "type": "cell-based, mouse", "conditions": "pretreated IPS vs non-treated IPS, listed as small molecule", "procedure": "In FIG. 3A, apoptosis was determined by TUNEL assay. […] All values were expressed as mean±SEM, * p<0.05 vs. control.\nas §1"}, "IPS cells [3]": {"tested_on": "IPS cells", "assay": "Cytochrome c translocation to cytoplasm after H2O2, immunostaining", "type": "cell-based, mouse", "conditions": "after exposure to H2O2 (100 μmol), vs non-treated IPS cells", "procedure": "Immunostaining of cytochrome c in non-treated and small molecule, isoxazole or isoxazole like compounds treated IPS cells after exposure to H2O2 ([…]), (merged images with DAPI), (original magnifications; 200×).\nas §1"}, "Nkx-2.5": {"tested_on": "Nkx-2.5", "assay": "Cardiac gene expression, RT-PCR and immunostaining", "type": "cell-based, mouse", "procedure": "as §1\nTotal RNA from small molecule treated and non-treated SiPS cells was isolated using RNeasy mini kit (Qiagen, Maryland, USA) and Omniscript Reverse Transcription kit (Qiagen, Maryland, USA) was used for the respective cDNA synthesis per manufacturer's instructions. […] PCR conditions included initial denaturation at 95° C. for 4 minutes, 32 cycles of denaturation at 95° C. for 1 minute, annealing at 55° C. for 1 minute, extension at 72° C. for 1 minute and final extension at 72° C. for 7 minutes. The PCR products were separated on 1.5% agarose gel, stained with ethidium bromide and visualized and photographed on a UV transluminator (Bio-Rad, USA).\nFor immunocytochemistry, differentiated colonies of SiPS were immunostained with respective specific primary antibodies (anti-Oct3/4, anti-Sox2, anti-Nanog antibodies, all at 1:100 concentration; Cell Signaling, Danvers, USA). […] The primary antibody-antigen reaction was detected with fluorescently conjugated specific secondary antibodies. […] Fluorescence signals were observed and photographed using fluorescence microscopy (Olympus; Tokyo, Japan)."}, "IPS cells [4]": {"tested_on": "IPS cells", "assay": "Affymetrix array-based gene expression profiling", "type": "cell-based, mouse", "procedure": "as §1\n(§2) Approximately 60% treated iPS cells were positive for Nkx-2.5. Given that posttranscriptional regulation is crucial for gene expression and cell survival molecular phenotypic analysis was performed, Affymetrix array-based gene expression profiling further confirmed 2-3 folds downregulation of Dnmt1, Dnmt3b and Max gene associated protein which were associated with global DNA hypomethylation and myc dependent cell transformation (see Table 1). Additionally, there was a 2-3 fold concomitant upregulation in the CCL7, CXCR2, CXCR5, integral membrane protein 2A, and ephrin A3. (FIG. 6).\nAffymetrix array-based gene expression profiling further confirmed 2-3 folds downregulation of Dnmt1, Dnmt3b and Max gene associated protein which were associated with global DNA hypomethylation and myc dependent cell transformation. In addition, there was 2-3 folds concomitant upregulation of CCL7, CXCR2, CXCR5, integral membrane protein 2A, and EphrinA3."}, "IPS cells [5]": {"tested_on": "IPS cells", "assay": "miR microarray analysis", "type": "cell-based, mouse", "conditions": "treated vs non-treated IPS cells", "procedure": "FIGS. 7A-7E show miR-microarray analysis of small molecule, isoxazole like compounds treated IPS vs non-treated IPS cells. Microarray analysis showing miR expression profile in non-treated IPS cells was quite different from small molecule treated IPS cells.\nas §2"}, "Gαi": {"tested_on": "Gαi", "assay": "Western blot of Gα protein (GPCR signaling)", "type": "cell-based, mouse"}, "[6]": {"tested_on": "Human iPSC line (ACS-1021)", "assay": "Generation of cardiac progenitor cells from human iPS cells and differentiation into three lineages", "type": "cell-based"}, "[7]": {"tested_on": "Skeletal myoblasts (SMs) from Oct3/4-GFP+ transgenic mouse", "assay": "Reprogramming of skeletal myoblasts to iPS cells", "type": "cell-based", "conditions": "500 μM in 0.5% DMSO, 5-days; two weeks later", "procedure": "Skeletal myoblasts (SMs) purified from young male Oct3/4-GFP^+ transgenic mouse were treated with DNA methyltransferase inhibitor 500 μM RG-108 in 0.5% DMSO in knock out DMEM for 5-days. […] Although the research described herein was conducted in a murine model, the use of the same markers and agents will provide similar if not identical results in human cells and tissue."}, "[8]": {"conditions": "Affymetrix array, treated vs non-treated iPS cells"}, "[9]": {"conditions": "IPs + Small Molecule, regulation down"}, "[10]": {"conditions": "IPs + Small Molecule, regulation up"}, "[11]": {"conditions": "basal differentiation conditions"}, "[12]": {"conditions": "hiPSC, 7 day small molecule treatment"}}, "note": "Entries after “also recorded” stand apart in the source; their conditions may differ.", "data": [{"compound": "O=C(NC1CC1)c1cc(-c2cccs2)on1", "note": "[ISX-9, N-cyclopropyl-5-thiophen-2-yl-1,2-oxazole-3-carboxamide]", "values": [{"measurement": "DNMT activity", "setting": "[1]; SiPS, 20 uM, five days", "result": "completely abolished"}, {"measurement": "reduction in global DNA methylation", "setting": "[1]; SiPS, 20 uM, five days, FIG. 2", "result": 95, "unit": "%"}, {"measurement": "inhibition of DNA methyltransferase activity", "setting": "[1]; treated IPS cells vs nontreated IPS cells, FIG. 2", "result": 95, "unit": "%"}, {"measurement": "proliferative activity / mitogenic response", "setting": "SiPS", "result": "increased proliferative activity; also recorded: increase in mitogenic response"}, {"measurement": "apoptosis (TUNEL positive cells)", "setting": "IPS cells [2]", "result": "tolerant to apoptosis; also recorded: reduced the apoptosis; also recorded: Fewer TUNEL positive cells/microscopic field"}, {"measurement": "cytochrome c translocation to cytoplasm", "setting": "IPS cells [3]", "result": "significant decrease"}, {"measurement": "treated iPS cells positive for Nkx-2.5", "setting": "Nkx-2.5; SiPS, 20 uM, five days", "result": "Approximately 60%"}, {"measurement": "Nkx-2.5 expression, RT-PCR", "setting": "Nkx-2.5; treated vs non treated IPS, p<0.01", "result": "significant upregulation"}, {"measurement": "downregulation of Dnmt1, Dnmt3b and Max gene associated protein", "setting": "IPS cells [4]; [8]", "result": "2-3 folds"}, {"measurement": "upregulation of CCL7, CXCL2, CXCL5, integral membrane protein 2A and ephrin A3", "setting": "IPS cells [4]; [8]", "result": "2-3 fold"}, {"measurement": "Fold change Dnmt1, DNA methyltransferase", "setting": "IPS cells [4]; [9]", "result": "−1.612", "unit": "fold"}, {"measurement": "Fold change Dnmt3b, DNA methyltransferase 3B", "setting": "IPS cells [4]; [9]", "result": "−1.282", "unit": "fold"}, {"measurement": "Fold change Mga, MAX gene associated protein", "setting": "IPS cells [4]; [9]", "result": "−1.104", "unit": "fold"}, {"measurement": "Fold change Ccl7, chemokine (C-C motif) ligand 7", "setting": "IPS cells [4]; [10]", "result": 3.316, "unit": "fold"}, {"measurement": "Fold change Cox6b1, cytochrome c oxidase subunit VIb polypeptide 1", "setting": "IPS cells [4]; [10]", "result": 2.546, "unit": "fold"}, {"measurement": "Fold change Cox16, COX16 cytochrome c oxidase assembly homolog", "setting": "IPS cells [4]; [10]", "result": 3.006, "unit": "fold"}, {"measurement": "Fold change Cxcl2, chemokine (C-X-C motif) ligand 2", "setting": "IPS cells [4]; [10]", "result": 2.732, "unit": "fold"}, {"measurement": "Fold change Cxcl5, chemokine (C-X-C motif) ligand 5", "setting": "IPS cells [4]; [10]", "result": 2.137, "unit": "fold"}, {"measurement": "Fold change Efna3, ephrin A3", "setting": "IPS cells [4]; [10]", "result": 2.088, "unit": "fold"}, {"measurement": "Fold change Itm2a, integral membrane protein 2A", "setting": "IPS cells [4]; [10]", "result": 2.255, "unit": "fold"}, {"measurement": "Fold change Itm2b, integral membrane protein 2B", "setting": "IPS cells [4]; [10]", "result": 2.18, "unit": "fold"}, {"measurement": "Fold change Uqcr10, ubiquinol-cytochrome c reductase complex III subunit X", "setting": "IPS cells [4]; [10]", "result": 2.298, "unit": "fold"}, {"measurement": "cardiac specific miR-133, miR-762 expression", "setting": "IPS cells [5]", "result": "upregulation"}, {"measurement": "pluripotency associated miR-290 cluster, miR-574-5p and let-7 family expression", "setting": "IPS cells [5]", "result": "down regulation"}, {"measurement": "Gαi / Gα (pan) protein level", "setting": "Gαi; Western blot, treated vs untreated IPS cells", "result": "significant upregulation"}, {"measurement": "expression of CPC markers including Nkx2.5 and GATA4, RT-PCR and immunostaining", "setting": "[6]; 20 μM, 7 days, RPMI/B27 minus insulin", "result": "observed"}, {"measurement": "spontaneous beating (cardiomyocyte differentiation)", "setting": "[6]; 7 days treatment, then RPMI/B27 with insulin 7-10 days, end of 20 days", "result": "all the cells began spontaneous beating"}, {"measurement": "percentage of CMs (TnT+) from Nkx2.5+ cells", "setting": "[6]; [11]", "result": "95.2±2.1", "unit": "%"}, {"measurement": "percentage of ECs (CD31+) from Nkx2.5+ cells", "setting": "[6]; [11]", "result": "90.3±2.5", "unit": "%"}, {"measurement": "percentage of SMCs (α-SMA+) from Nkx2.5+ cells", "setting": "[6]; [11]", "result": "92.3±1.8", "unit": "%"}, {"measurement": "purity of Nkx2.5 positive cells by FACS", "setting": "[6]; [12]", "result": "96.5±2.5", "unit": "%"}, {"measurement": "transcription factors (Nkx2.5, GATA4 and ISL-1), immunofluorescence staining", "setting": "[6]; [12]", "result": "highly expressed"}, {"measurement": "α-SMA and calponin expression, immunostaining", "setting": "[6]; induced CPC in DMEM-F12 with TGFβ and PDGFBB, 10 days", "result": "observed"}, {"measurement": "endothelial cell markers CD31 and VE-cadherin", "setting": "[6]; induced CPC in EGM-2 medium, 10 days", "result": "expressed"}, {"measurement": "converting iPSC into cardiac progenitors including endothelial/vascular progenitors and smooth muscle cells", "setting": "[6]; overall conclusion", "result": "very effective"}]}, {"compound": "O=C(O)C(Cc1c[nH]c2ccccc12)N1C(=O)c2ccccc2C1=O", "note": "[RG-108, N-phthalyl-L-tryptopha]", "values": [{"measurement": "generation of iPS cell colonies", "setting": "[7]", "result": "GFP^+ colonies of SM derived iPS cells (SiPS)"}]}, {"compound": "pertussis toxin", "values": [{"measurement": "effect on small molecule induced Gα (pan) upregulation", "setting": "Gαi; concomitant use with small molecule in IPS cells", "result": "blocked"}]}]}
